Data: PMC12040169 (PLOS Biology, 2025)

Experiment: in vitro
Settings: human, hela cells, % viability

SMILES	viability at 28.5 h, 10 µM [%]
Cn1cc(C2CCCN2C(=O)Cc2csc3ccccc23)cn1 (centres unmarked) [CBK305066]	102
Cc1cc(OCC(=O)N2CCC(C(=O)Nc3ccccc3)CC2)no1 [CBK305067]	99.5
Cc1ccnc2nc(C(=O)OCC(=O)Nc3cccc(C#N)c3)nn12 [CBK305068]	100
CCN(CC)C(=O)CCc1nc2sc3c(c2c(=O)[nH]1)CCCC3 [CBK305069]	87.6
CCn1cnnc1SCC(=O)Nc1ccc(CN2CCOCC2)cc1 [CBK305072]	97.4
COc1cccc(C(=O)NCC(c2cccs2)N2CCOCC2)c1 (centres unmarked) [CBK305075]	90.7
CCOc1ncccc1NC(=O)N(CC1CCOC1)C1CC1 (centres unmarked) [CBK305077]	94
CS(=O)(=O)NC1CCN(CCc2ccc(F)c(F)c2)C1 (centres unmarked) [CBK305078]	95.3
CC(=O)Nc1cccc(C(=O)N2CCCC2c2ccncc2)c1 (centres unmarked) [CBK305080]	96.5
CCNC(=O)C1CCCN(Cc2ncc(C)c(OC)c2C)C1 (centres unmarked) [CBK305081]	78
CC(c1ccc(F)c(F)c1)N(C)C(=O)Cn1ncn(C)c1=O (centres unmarked) [CBK305083]	80.2
CCC(c1ccccc1)N1CCN(Cc2noc(C)n2)CC1 (centres unmarked) [CBK305084]	90.3
CCN(CC)C(=O)C1CCCN1C(=O)c1ccnc(N(C)C)c1 (centres unmarked) [CBK305086]	99.7
Cc1cccc(C2(CNC(=O)C3COCCO3)CCCCC2)c1 (centres unmarked) [CBK305087]	109
CC(NC(=O)N1CCSCC1)c1ccc2c(c1)CC(=O)N2 (centres unmarked) [CBK305093]	96.7
Cn1cc(CCC(=O)N2CCN(Cc3ccccn3)CC2)cn1 [CBK305094]	113
COc1ccc(CCN2CCCCC2Cn2cncn2)cc1 (centres unmarked) [CBK305095]	108
COc1ccccc1C(C)N(C)CCC(=O)Nc1cc(C)on1 (centres unmarked) [CBK305098]	94.1
Cn1nccc1CNCc1cc(Br)ccc1Cl [CBK305100]	88.3
CC(C)(C)OC(=O)N1CCCC(C(=O)NCc2ccco2)C1 (centres unmarked) [CBK305102]	99.1
CCc1nc(CNc2ccc(NC(C)=O)cc2Cl)cs1 [CBK305103]	102
CCc1ccc(CNC2CCN(Cc3cscn3)CC2)o1 [CBK305104]	92.7
Cc1n[nH]c(C)c1C1COCCN1C(=O)c1cccc(F)c1 (centres unmarked) [CBK305105]	86.9
OC1CC(c2cc(F)ccc2F)N(CCc2ccncc2)C1 (centres unmarked) [CBK305106]	87.2

SMILES	viability at 28.5 h, 10 µM [%]
Cc1cccc(-c2nc(CN(C)CC(=O)NC(C)C)no2)c1 [CBK305109]	115
COCCc1nsc(N2CCCC(c3nccs3)C2)n1 (centres unmarked) [CBK305110]	92
CCC(CC)n1nc(C(=O)NC2(C#N)CCSC2)cc1C (centres unmarked) [CBK305111]	103
O=C(CN1CCCC1Cn1cncn1)NCCc1ccsc1 (centres unmarked) [CBK305113]	85.2
CCOC(=O)c1cnn(C2CCCN(Cc3cccn3C)C2)c1 (centres unmarked) [CBK305114]	84.3
NC(=O)c1cccc(CNC2CCCN(c3cccnn3)C2)c1 (centres unmarked) [CBK305115]	103
COCc1nc2n(n1)CC(NC1CCCc3sccc31)CC2 (centres unmarked) [CBK305116]	90.1
CC(C)c1nc(NCc2nnc3n2CCC3)nc(N(C)C)n1 [CBK305117]	99.5
CCc1nc(C(C)NCC(=O)Nc2cc(C)nn2C)cs1 (centres unmarked) [CBK305118]	97.8
Cc1nc(CNCc2c(C(C)C)nn(C)c2N(C)C)cs1 [CBK305119]	109
Cc1noc(C2COCCN2C(=O)c2cc(Cl)cn2C)n1 (centres unmarked) [CBK305120]	98.8
CCOC(=O)c1cnn(C2CCCN(Cc3cccs3)C2)c1 (centres unmarked) [CBK305121]	99.5
Cc1nnc(CN(C)C2CCN(CCc3cccs3)C2)n1C (centres unmarked) [CBK305126]	97.8
CC(NCC(=O)NC1(C#N)CCCCC1)C(C)n1cccn1 (centres unmarked) [CBK305129]	91.4
COCCn1c(SC2CCN(C)C2=O)nc2ccccc21 (centres unmarked) [CBK305131]	97.9
CC(C)c1nn(C)c(N(C)C)c1CNCCc1cnn(C)c1 [CBK305135]	108
Cc1cccc(CCNC(=O)N2CCC(Cc3cnn(C)c3)C2)c1 (centres unmarked) [CBK305137]	110
COc1ccc(Br)c(C(=O)N(C)Cc2cnn(C)c2)c1 [CBK305142]	97.7
CC(=O)c1cccc(NC(=O)CN2CCCC2c2cccs2)c1 (centres unmarked) [CBK305143]	109
CCN(C(C)COC)S(=O)(=O)c1cccc(Cl)c1Cl (centres unmarked) [CBK305146]	98.4
CCCCCCN(CCN1CCOCC1)C(=O)Nc1cc(C)on1 [CBK305147]	84.7
O=C(NCCN1CCCCC1)C1CC(=O)N(c2ccccc2F)C1 (centres unmarked) [CBK305148]	86.8
COc1ccnc(N2CCCN(Cc3ncc(Cl)n3C)CC2)n1 [CBK305152]	111
Cn1cc(CNCC2CCN(CCO)CC2)c(-c2cccnc2)n1 [CBK305153]	91.2

SMILES	viability at 28.5 h, 10 µM [%]
O=C(CC1OCCc2ccsc21)N1CCCC(n2cccn2)C1 (centres unmarked) [CBK305154]	96.7
CC(C(=O)NC1(C#N)CCCCC1)N1CCOC(CN(C)C)C1 (centres unmarked) [CBK305155]	88.6
COCCn1cc(C(=O)N2CCOC3CCCC32)c2ccccc21 (centres unmarked) [CBK305156]	86.1
CCC(CCO)CNc1ncnc2ccc(S(C)(=O)=O)cc12 (centres unmarked) [CBK305157]	84
CC(=O)Nc1cccc(C(=O)N2CCN(CC3CCCO3)CC2)c1 (centres unmarked) [CBK305158]	96
N#Cc1ccc(N2CCCC(N3CCNC3=O)C2)c(C(F)(F)F)c1 (centres unmarked) [CBK305162]	84.9
CC(Sc1nc2ccc(Cl)cc2o1)C(=O)N1CCOCC1 (centres unmarked) [CBK305164]	92.1
COCC(O)CN(C)c1nc(-c2ccncc2)nc2ccccc12 (centres unmarked) [CBK305170]	78.7
Cc1nnc(C(C)N2CCN(Cc3noc(C(C)(C)C)n3)CC2)o1 (centres unmarked) [CBK305171]	85.7
CCC(NC(=O)Nc1ccc(N2CCOCC2)nc1)c1cnn(CC)c1 (centres unmarked) [CBK305172]	90.6
Cn1cc(CNS(=O)(=O)c2ccc(F)c(Br)c2)cn1 [CBK305174]	92.5
COCCOCC(C)NC(=O)COc1nn(C)c2nc(C)cc(C)c12 (centres unmarked) [CBK305177]	105
CS(=O)(=O)CCOCCNC(=O)c1cc(Br)cnc1Cl [CBK305178]	86.4
CCc1nc(C2CCCN2c2ncc(C#N)cc2Cl)no1 (centres unmarked) [CBK305183]	91.1
c1csc(N2CCN(c3nccn4cnnc34)CC2)n1 [CBK305185]	103
CCNS(=O)(=O)c1ccc2c(c1)N(Cc1nc(C)c(C)o1)CC2 [CBK305189]	51.5
Cc1ccnc(NCC2CCN(c3cc(=O)n4oc(C)cc4n3)C2)c1 (centres unmarked) [CBK305191]	84.6
CC(=O)c1cccc(NC(=O)N(CCO)C2CCCc3ccccc32)c1 (centres unmarked) [CBK305195]	83
Cc1cc(C)n2nc(C(=O)N3CCC(C)CC3c3ccco3)nc2n1 (centres unmarked) [CBK305196]	84.8
CC(C)(C)c1n[nH]c(C2CN(C(=O)CCCn3cccn3)CCO2)n1 (centres unmarked) [CBK305198]	88.1
Cn1ccc(C(=O)N2CCOC(c3nc(C(C)(C)C)n[nH]3)C2)cc1=O (centres unmarked) [CBK305201]	106
CCc1nc(C)c(C(C)N(C)CC(=O)NCc2ccco2)s1 (centres unmarked) [CBK305203]	86.6
CC(C)(C)c1n[nH]c(C2CN(C(=O)CCc3ccco3)CCO2)n1 (centres unmarked) [CBK305204]	81.5
CCn1ncc2c1CCCC2NC1CCN(CC(F)(F)F)C1=O (centres unmarked) [CBK305206]	89.5

SMILES	viability at 28.5 h, 10 µM [%]
COCCn1c(SCc2c(C)nc3ccccn23)nc(C)c1C [CBK305212]	80.1
CCc1nnc(CN2CCCC(c3cc(C(N)=O)[nH]n3)C2)o1 (centres unmarked) [CBK305213]	74.5
CC(CC(=O)N1CCOC(c2nc(C(C)(C)C)n[nH]2)C1)n1cccc1 (centres unmarked) [CBK305214]	82.8
CN(c1ccccc1)C1CCN(c2nc3c(cnn3C)c(=O)[nH]2)CC1 [CBK305215]	96.3
COc1ncccc1CNC(=O)Nc1cccn(CC(F)(F)F)c1=O [CBK305216]	113
CN(C)c1cccc(C2CCCN2c2nc3c(cnn3C)c(=O)[nH]2)c1 (centres unmarked) [CBK305220]	78.6
O=C(NCC(CO)Cc1ccccn1)c1ccc2cc[nH]c2c1 (centres unmarked) [CBK305222]	81.6
O=C(NC1CCN(CC(F)(F)F)C1=O)c1cc(Cl)ccn1 (centres unmarked) [CBK305223]	98.6
CCN1CCCC(NC(=O)COc2nn(C)c3nc(C)cc(C)c23)C1 (centres unmarked) [CBK305224]	113
CN1CCCc2ccc(S(=O)(=O)Nc3nc4ncccn4n3)cc21 [CBK305226]	85.7
CCn1cnc(S(=O)(=O)N2CCC(OCc3ccccc3)CC2)c1 [CBK305228]	73.1
Cc1cc(NC(=O)CN2CCOC(CNc3cccnn3)C2)on1 (centres unmarked) [CBK305231]	109
COc1cccc(CC(=O)N2CCOc3ncccc32)c1 [CBK305235]	98.4
CC1(C)CCCC1NC(=O)NCc1cccc(-c2nnc[nH]2)c1 (centres unmarked) [CBK305236]	83.9
Cc1cc(NC(=O)CN(C)CCNC(=O)C2CCCC2)no1 [CBK305237]	84.9
Cc1cc(C(=O)CSc2nccc(C(F)(F)F)n2)c(C)n1C1CC1 [CBK305238]	80
CS(=O)(=O)N1CCCc2cc(-c3csc(-c4cnccn4)n3)ccc21 [CBK305239]	95.4
Cc1cc(C2CCCN(C(=O)CC3OCCc4sccc43)C2)n[nH]1 (centres unmarked) [CBK305241]	94.3
Cc1ccc(C(=O)NC2CCN(C(=O)Nc3cc(Cl)ccc3F)CC2)s1 [CBK305243]	88.8
Cc1nn(C)c(Cl)c1CN1CCOC(c2ccccc2)C1 (centres unmarked) [CBK305244]	83.2
Cc1nc2ccccc2n1CC(=O)N(Cc1cccnc1)C1CC1 [CBK305248]	109
Cc1cc(O)nc(C(C)N2CCN(Cc3noc(C(C)(C)C)n3)CC2)n1 (centres unmarked) [CBK305249]	95.4
CCn1c(CN2CCCC2c2noc(C)n2)nc2cc(F)ccc21 (centres unmarked) [CBK305250]	55.9
